US11352405B2, “GLP-1/glucagon receptor agonists in the treatment of fatty liver disease and steatohepatitis” (SANOFI, priority 2017, dated 2022)
Starred links: 1 amine or outer side, 2 acyl side, 3 side chain; linkers in the order of their positions; H or OH if unused. Non-standard residues stand in square brackets, D forms with d. Groups on a side chain read outwards from the residue. No end group written: not given here. Stea = stearoyl, (S)-4-carboxy-4-octadecanoylamino-butyryl on Lys via γGlu; γGlu = O=C(O)[C@H](CCC(=O)[*:2])N[*:1]

How the values were obtained:
[1] = system: mice with AMLN-diet-induced NASH; experiment: murine diet-induced NASH model (AMLN diet), eight-week treatment; type: in vivo, C57BL/6J mice
Source text: Test compounds were investigated in a mouse model of NASH (murine diet-induced NASH model) as described in Kristiansen et al (World Journal of Hepatology 2016, vol. 8, pp. 673-684). C57BL/6J mice were given ad libitum access to a diet (D09100301, Research Diet, United States) high in fat (40%, of these 18% trans-fat), carbohydrates (40%, of these 20% fructose) and cholesterol (2%) that has previously been described as AMLN diet ([…] et al., Am J Physiol Gastrointest Liver Physiol 2013, vol. 305, pp. G483-G495). A control group was kept on regular rodent chow (Altromin 1324, Brogaarden, Denmark). After 26 weeks on the diet, a liver biopsy was performed for histological assessment of NASH and fibrosis at baseline. For this purpose, about 100 mg liver tissue were collected from the left lateral lobe, fixed overnight in 4% paraformaldehyde, paraffin-embedded and sectioned (3 μm thickness). For histological assessment, sections were stained with hematoxylin, eosin or Sirius Red and followed by analysis with Visiomorph software (Visiopharm, Denmark). Histological scoring was performed by a pathologist blinded to the study. NAFLD activity score and fibrosis score were determined according to the clinical criteria outlined by Kleiner et al (Hepatology 2005, […], pp. 1313-1321). Animals were randomized into different treatment groups according to body weight and extent of fibrosis. Treatment period was eight weeks during which animals remained on the AMLN diet. Compounds were given by once-daily or twice-daily subcutaneous injection. Vehicle-treated animals on AMLN diet and non-treated animals on regular rodent chow were included as controls. Group sizes were between 8 and 14 animals. After treatment, terminal liver samples were collected and analysed as for the pre-biopsy. Dual-agonistic GLP1R/GCGR agonistic peptides were investigated in a murine model of NASH as described in the methods section. Treatment duration was eight weeks over which animals remained on the NASH-inducing AMLN diet. The GLP1R-specific agonist liraglutide (SEQ ID NO.: 4) was included as a reference compound. In the diet-induced murine NASH model, compounds were administered at the following doses (all via subcutaneous injections): SEQ ID NO.: 2 10 μg/kg b.i.d., SEQ ID NO.:3 30 μg/kg q.d. in comparison to liraglutide (SEQ ID NO.: 4) at 200 μg/kg q.d., SEQ ID NO.: 1 10 μg/kg b.i.d. or 30 μg/kg b.i.d. in comparison to liraglutide (SEQ ID NO.: 4) at 100 μg/kg b.i.d.

human GLP-1 receptor = human GLP-1 receptor (Homo sapiens, UniProt P43220); experiment: binding to human GLP-1 receptor
Chain of human GLP-1 receptor (P43220 24-463): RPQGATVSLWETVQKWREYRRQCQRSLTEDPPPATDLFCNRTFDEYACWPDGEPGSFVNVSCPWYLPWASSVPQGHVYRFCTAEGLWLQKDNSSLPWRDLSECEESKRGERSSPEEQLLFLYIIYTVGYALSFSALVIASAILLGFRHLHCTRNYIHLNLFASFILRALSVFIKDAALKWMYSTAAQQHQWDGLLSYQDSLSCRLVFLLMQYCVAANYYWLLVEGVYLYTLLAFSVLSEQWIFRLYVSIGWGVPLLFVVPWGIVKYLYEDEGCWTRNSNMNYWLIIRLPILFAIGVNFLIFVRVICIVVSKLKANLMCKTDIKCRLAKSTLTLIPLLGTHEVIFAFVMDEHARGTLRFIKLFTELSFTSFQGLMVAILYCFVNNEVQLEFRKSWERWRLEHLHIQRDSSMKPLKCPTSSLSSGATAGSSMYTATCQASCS

human glucagon receptor = human glucagon receptor (Homo sapiens, UniProt P47871); experiment: binding to human glucagon receptor
Chain of human glucagon receptor (P47871 26-477): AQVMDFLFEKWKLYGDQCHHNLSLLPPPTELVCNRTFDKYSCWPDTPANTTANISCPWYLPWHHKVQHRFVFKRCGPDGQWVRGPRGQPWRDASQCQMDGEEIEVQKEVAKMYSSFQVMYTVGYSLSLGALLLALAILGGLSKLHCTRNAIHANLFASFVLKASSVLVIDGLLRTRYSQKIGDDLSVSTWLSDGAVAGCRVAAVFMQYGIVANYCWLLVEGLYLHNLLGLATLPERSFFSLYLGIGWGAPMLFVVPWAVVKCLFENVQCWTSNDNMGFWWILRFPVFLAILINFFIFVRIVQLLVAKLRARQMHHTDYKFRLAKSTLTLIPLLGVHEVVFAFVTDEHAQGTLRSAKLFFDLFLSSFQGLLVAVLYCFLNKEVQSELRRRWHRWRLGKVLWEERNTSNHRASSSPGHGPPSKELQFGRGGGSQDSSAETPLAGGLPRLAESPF

[2] = 10 μg/kg b.i.d. s.c., eight weeks, AMLN diet mice (FIG. 1A study)
[3] = 10 μg/kg b.i.d. s.c., eight weeks, vehicle increased by 0.2 points
[4] = 30 μg/kg twice daily s.c., eight weeks, AMLN diet mice (FIG. 3A study)

Substance: H-dS-Q-G-T-F-T-S-D-L-S-K-Q-K(γE-Stea)-DEQLAKDFIEWLKAGGPSSGAPPPS-NH2 (H[dS]QGTFTSDLSKQK([γGlu-Stea])DEQLAKDFIEWLKAGGPSSGAPPPS-NH2) [SEQ ID NO.: 3, exendin-4 derivative of formula A, dual GLP-1/glucagon receptor agonist]
- weight loss vs baseline ([1]; 30 μg/kg q.d. s.c., eight weeks, AMLN diet mice (FIG. 2A study), vehicle gained 1.1 grams): 3.9 grams
- weight loss vs baseline (% of body weight) ([1]; 30 μg/kg q.d. s.c., eight weeks, AMLN diet mice (FIG. 2A study), vehicle gained 3.0%): 10.5%
- change in mean fibrosis score vs baseline ([1]; 30 μg/kg q.d. s.c., eight weeks, vehicle increased by 0.1 points): remained unchanged
- decrease in NAS vs baseline ([1]; 30 μg/kg q.d. s.c., eight weeks, vehicle increased by 0.8 points, p<0.001 vs vehicle, p<0.05 vs liraglutide): 1.6 points

Substance: H-dS-Q-G-T-F-T-S-D-L-S-K-Q-K(γE-Palm)-DSRRAQDFIEWLKNGGPSSGAPPPS-NH2 (HXQGTFTSDLSKQKDSRRAQDFIEWLKNGGPSSGAPPPS; D-Ser1; K14 γE-palmitoyl; C-terminal amide; Exendin-4 analogue; MOD_RES (2)..(2) Xaa is D-Ser; MOD_RES (14)..(14) Lys is functionalized at the amino side chain group as Lys((S)-4-carboxy-4-hexadecanoylamino-butyryl); MOD_RES (39)..(39) amidated C-terminus) [SEQ ID NO.: 2, exendin-4 derivative of formula A, dual GLP-1/glucagon receptor agonist]
- mean fibrosis stage after treatment ([1]; 10 μg/kg b.i.d. s.c., after eight weeks, baseline 1.2, vehicle group did not change): 0.6
- components of NAS (steatosis, inflammation and hepatocyte ballooning scores) ([1]; 10 μg/kg b.i.d. s.c., eight weeks (FIG. 1D)): reduction in score was seen for all three components of NAS
- weight loss vs vehicle [1, 2]: 4.9 grams
- weight loss vs vehicle, % of body weight at baseline [1, 2]: 13.5%
- weight loss vs baseline ([1]; 10 μg/kg b.i.d. s.c., eight weeks, AMLN diet mice (FIG. 1A study), vehicle gained 2.1 grams): 2.8 gram
- weight loss vs baseline (% of body weight) ([1]; 10 μg/kg b.i.d. s.c., eight weeks, AMLN diet mice (FIG. 1A study), vehicle gained 5.6%): 7.7%
- reduction in NAFLD activity score (NAS) vs baseline [1, 3]: 2.3 points

Substance: H-dS-Q-G-T-F-T-S-D-L-S-K-Q-K(γE-Palm)-ESKAAQDFIEWLKAGGPSSGAPPPS-NH2 (HXQGTFTSDLSKQKESKAAQDFIEWLKAGGPSSGAPPPS; D-Ser1; K14 γE-palmitoyl; C-terminal amide; Exendin-4 analogue; MOD_RES (2)..(2) Xaa is D-Ser; MOD_RES (14)..(14) Lys is functionalized at the amino side chain group as Lys((S)-4-carboxy-4-hexadecanoylamino-butyryl); MOD_RES (39)..(39) amidated C-terminus) [SEQ ID NO.: 1, exendin-4 derivative of formula A, dual GLP-1/glucagon receptor agonist]
- binding to human GLP-1 receptor (human GLP-1 receptor): good binding
- decrease in mean NAS vs baseline [1, 3]: 2.0 points
- weight loss vs baseline ([1]; 10 μg/kg twice daily s.c., eight weeks, AMLN diet mice (FIG. 3A study), vehicle gained 0.5 grams): 3.0 grams
- weight loss vs baseline (% of body weight) ([1]; 10 μg/kg twice daily s.c., eight weeks, AMLN diet mice (FIG. 3A study), vehicle gained 1.3%): 8.5%
- decrease in mean NAS vs baseline ([1]; 30 μg/kg b.i.d. s.c., eight weeks, vehicle increased by 0.2 points, p<0.05 vs liraglutide): 1.9 points
- weight loss vs baseline [1, 4]: 3.9 grams
- weight loss vs baseline (% of body weight) [1, 4]: 11.4%
- change in fibrosis vs baseline ([1]; both doses, 10 and 30 μg/kg b.i.d. s.c., eight weeks (FIG. 3E)): trend to an improvement in fibrosis
- binding to human glucagon receptor (human glucagon receptor): good binding
